Among the data in patent US12599672B2, “KRAS proteolysis targeting chimeras” (PAQ Therapeutics Inc., priority 2023, dated 2026) are DC50 values, retold here.

Common to all, as to assay type: cell-based
One experiment concerns the target T1, KRAS (Homo sapiens, UniProt P01116).
T1 construct: endogenous in cells; host or cells: KE39 (KRAS amplified) cells
Nature of the experiment: KRASamp MSD assay. Particulars: KE39 (KRAS amplified) cells, treated with test compounds for 24 hr, MSD readout of KRAS degradation. In short, it runs like this: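 Degradation DC50 derived by curve fitting, with KRAS levels quantified by MSD electrochemiluminescence (capture/detection antibodies, recombinant WT KRAS standard). Lysates prepared from KE39 cells (KRAS amplified) exposed to test compounds for 24 hr.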

A further experiment addresses T2, KRAS G12V (Homo sapiens, UniProt P01116, G12V).
T2 construct: SW620-KRAS (G12V)-HiBit-KI cell (Pharmaron); host or cells: SW620-KRAS (G12V)-HiBit-KI cells (HiBiT knock-in at the endogenous KRAS locus)
The experiment can be described thus: KRAS G12V HiBit assay. The note with it: SW620-KRAS (G12V)-HiBit-KI cells, compound treatment for 24 hours, class symbols. In short, it runs like this:
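Luminescence from lytic Nano-Glo HiBiT detection with LgBiT read KRAS G12V levels after 24 h compound exposure. Dilutions were 10-point, 3-fold, from a 0.3 mM DMSO stock. Degradation activity was normalised to cells given 0.1% DMSO alone.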
A general note: With HiBiT, luminescence reflects the tagged protein that the partner subunit can reach.

For the next experiment, the target named is T3, KRAS G12D (Homo sapiens, UniProt P01116, G12D).
T3 construct: AsPc-1-KRAS (G12D)-HiBit-KI cell (Pharmaron); host or cells: AsPc-1-KRAS (G12D)-HiBit-KI cells (HiBiT knock-in at the endogenous KRAS locus)
Nature of the experiment: KRAS G12D HiBit assay. The note with it: AsPc-1-KRAS (G12D)-HiBit-KI cell, compound treatment for 24 hours, absolute DC50. In outline:
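HiBiT luminescence, detected by adding lytic buffer, substrate and LgBiT protein, served as the KRAS G12D read-out. Compounds, serially diluted 3-fold over 10 points from 0.3 mM DMSO stock, were on cells for 24 h; percent inhibition normalized to cells given 0.1% DMSO only.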

T1 sequence (P01116 1-188 isoform P01116-2): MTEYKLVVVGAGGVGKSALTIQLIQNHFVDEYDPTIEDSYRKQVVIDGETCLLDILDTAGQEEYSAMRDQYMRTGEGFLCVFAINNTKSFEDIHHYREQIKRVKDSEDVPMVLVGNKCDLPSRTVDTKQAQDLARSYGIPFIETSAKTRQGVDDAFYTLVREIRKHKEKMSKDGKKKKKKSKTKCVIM
T2 sequence (P01116 1-188 isoform P01116-2 G12V): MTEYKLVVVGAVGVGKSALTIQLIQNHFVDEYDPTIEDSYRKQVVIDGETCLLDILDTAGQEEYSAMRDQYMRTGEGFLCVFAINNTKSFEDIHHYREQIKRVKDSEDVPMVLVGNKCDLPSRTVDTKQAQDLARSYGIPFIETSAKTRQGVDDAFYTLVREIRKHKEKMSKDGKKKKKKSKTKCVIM
T3 sequence (P01116 1-188 isoform P01116-2 G12D): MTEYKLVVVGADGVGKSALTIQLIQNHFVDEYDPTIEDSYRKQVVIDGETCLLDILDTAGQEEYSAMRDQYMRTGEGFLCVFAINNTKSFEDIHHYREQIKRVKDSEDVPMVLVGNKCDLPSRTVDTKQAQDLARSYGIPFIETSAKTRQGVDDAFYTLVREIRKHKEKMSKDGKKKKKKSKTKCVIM

Regarding `CCc1c(F)ccc2cc(O)cc(-c3ncc4c(N5CCC[C@@](C)(O)C5)nc(OC[C@]56CCCN5[C@H](COC(=O)N5CCC(CCOc7ccc8c(c7)n(C)c(=O)n8C7CCC(=O)NC7=O)CC5)CC6)nc4c3F)c12` (stereo partly drawn) [Compound 300, ((3S,7aR)-7a-(((7-(8-ethyl-7-fluoro-3-hydroxynaphthalen-1-yl)-8-fluoro-4-((R)-3-hydroxy-3-methylpiperidin-1-yl)pyrido[4,3-d]pyrimidin-2-yl)oxy)methyl)hexahydro-1H-pyrrolizin-3-yl)methyl 4-(2-((1-(2,6-dioxopiperidin-3-yl)-3-methyl-2-oxo-2,3-dihydro-1H-benzo[d]imidazol-5-yl)oxy)ethyl)piperidine-1-carboxylate], the DC50 is less than 1 nM on KRAS, less than 10 nM at KRAS G12V and less than 100 nM at KRAS G12D (class symbols).

On to `CCc1c(F)ccc2cc(O)cc(-c3ccc4c(N5CCC[C@@](C)(O)C5)nc(OC[C@@]56CCCN5[C@H](COC(=O)N5CCC(CN7CCC(c8cc9c(cc8F)n(C8CCC(=O)NC8=O)c(=O)n9C)CC7)CC5)CC6)nc4c3F)c12` (stereo partly drawn) [Compound 424, ((3S,7aS)-7a-(((7-(8-ethyl-7-fluoro-3-hydroxynaphthalen-1-yl)-8-fluoro-4-((R)-3-hydroxy-3-methylpiperidin-1-yl)quinazolin-2-yl)oxy)methyl)hexahydro-1H-pyrrolizin-3-yl)methyl 4-((4-(1-(2,6-dioxopiperidin-3-yl)-6-fluoro-3-methyl-2-oxo-2,3-dihydro-1H-benzo[d]imidazol-5-yl)piperidin-1-yl)methyl)piperidine-1-carboxylate], for which the results for the DC50 on KRAS, on KRAS G12V and on KRAS G12D (class symbols) were less than 1 nM, less than 10 nM and less than 100 nM, respectively.

For `CCc1c(F)ccc2cc(O)cc(-c3ncc4c(N5CC[C@H](O)C5)nc(OC[C@@]56CCCN5[C@H](COC(=O)N5CCC7(CC5)CC(N5CCC(c8ccc9c(c8)n(C)c(=O)n9C8CCC(=O)NC8=O)CC5)C7)CC6)nc4c3F)c12` (stereo partly drawn) [Compound 349, ((3S,7aS)-7a-(((7-(8-ethyl-7-fluoro-3-hydroxynaphthalen-1-yl)-8-fluoro-4-((S)-3-hydroxypyrrolidin-1-yl)pyrido[4,3-d]pyrimidin-2-yl)oxy)methyl)hexahydro-1H-pyrrolizin-3-yl)methyl 2-(4-(1-(2,6-dioxopiperidin-3-yl)-3-methyl-2-oxo-2,3-dihydro-1H-benzo[d]imidazol-5-yl)piperidin-1-yl)-7-azaspiro[3.5]nonane-7-carboxylate], the DC50 at KRAS is 1 to 10 nM; on KRAS G12V, 10 to 100 nM; on KRAS G12D (numeric bounds given in place of class symbols), more than 100 nM.
